Where two headings read alike, the source gives them in different places.
Key:
[1] = 7-day repeat-dose oral toxicokinetics; type: in vivo, CD-1 mouse; conditions: for Cmax / Tmax / AUC(0-t): CD-1, mouse, plasma, po; for AUC(0-t): read-out: AUC0-24
Procedure: Toxicokinetics were evaluated as part of a 7-day oral repeat-dose dose range finding study in CD-1 mice. […] On Days 1 and 7, blood was collected for plasma toxicokinetics (TK) from the treatment groups at 0 (pre-first dose), 0.5, 2, 4, 6 (pre-second dose), 6.5, 8, 10, 12, and 24 hours post-first dose. In the vehicle control group, blood was collected for plasma TK on Day 1 and Day 7 at 0.5 and 6.5 hours post-first dose.

in vivo = test: in vivo
Procedure: The purpose of this study was to determine the MTD following a single oral dose (Phase 1) and to characterize the toxicity and toxicokinetic profile following 7 days BID dosing with ribitol (Phase 2).
In Phase 1, Swiss Crl: CD1® mice (5/sex/group) were given ribitol at 0.3, 1.0, 1.5, or 2.0 g/kg/dose BID (0.6, 2.0, 3.0, or 4.0 g/kg/day) with 5 to 7 hours between doses. […] Mice were assessed for viability, clinical signs, body weight, food consumption, and macroscopic findings at necropsy.
Doses were selected for Phase 2 based on the Phase 1 study results and the intended highest clinical dose of 12.0 g/day. In Phase 2, mice (5/sex/group) were given oral doses of 0 (vehicle control, purified water), 0.5, 1.0, or 1.5 g/kg/dose ribitol BID (1.0, 2.0, 3.0 g/kg/day) with 6 hours between doses. Mice were assessed for viability, clinical signs, body weight, food consumption, clinical pathology (hematology and serum chemistry), organ weights (adrenal glands, brain, heart, kidneys, liver with gall bladder, ovaries, spleen, testes, and thymus), and macroscopic pathology at necropsy. Blood was taken from a satellite group of animals (3/sex/timepoint) for plasma TK analysis on Days 1 and 7.

Phase 2 patient study = type: in vivo, human; conditions: for average drop in fatigue (scale of 1 to 10): 90 days
Excerpt: Ribitol is being tested in an ongoing Phase 2 study with 14 patients receiving doses of either 6 g once daily (QD), 6 g twice daily (BID), or 12 g BID. Data is available following 3 months of therapeutic exposure in 8 subjects (6 g QD, n=4, 6 g BID, n=4). […] All 12 subjects have shown decreases in creatine kinase from baseline. Younger, ambulatory patients started with higher baseline creatine kinase values and had the largest magnitude drops. Decreases were observable starting at day 8 with continued declines through day 90. Efficacy studies are ongoing. Improvements in 10-meter walk test (MWT) to test ambulation, NSAD for gross motor function, PUL2.0 for upper limb function, and spirometry for respiratory function have been observed (Table 17). […] Decreases in patient-reported muscle fatigue over the 90-day treatment period has been observed in 7 of 8 patients. These 7/8 patients have reported decreases as recorded in a daily diary and noted on a scale of 1 to 10 where 1 indicates no fatigue and a 10 is the maximum level of fatigue.

hERG = hERG (Homo sapiens, UniProt Q12809); test: in vitro
Procedure: Therefore, the concentrations chosen for the definitive hERG assay were 0.1, 0.3, 1, and 3 mM, the detected concentrations of postperfusion solution were 0.101, 0.293, 0.999, and 2.90 mM, respectively.

[2] = female, 0.5 g/kg, 0.5 g/kg/dose BID, Day 1, F
[3] = female, 0.5 g/kg, 0.5 g/kg/dose BID, Day 7, F
[4] = female, 1 g/kg, 1.0 g/kg/dose BID, Day 1, F
[5] = female, 1 g/kg, 1.0 g/kg/dose BID, Day 7, F
[6] = female, 1.5 g/kg, 1.5 g/kg/dose BID, Day 1, F
[7] = female, 1.5 g/kg, 1.5 g/kg/dose BID, Day 7, F
[8] = male, 0.5 g/kg, 0.5 g/kg/dose BID, Day 1, M
[9] = male, 0.5 g/kg, 0.5 g/kg/dose BID, Day 7, M
[10] = male, 1 g/kg, 1.0 g/kg/dose BID, Day 1, M
[11] = male, 1 g/kg, 1.0 g/kg/dose BID, Day 7, M
[12] = male, 1.5 g/kg, 1.5 g/kg/dose BID, Day 1, M
[13] = male, 1.5 g/kg, 1.5 g/kg/dose BID, Day 7, M

Sequence of hERG (Q12809 whole entry): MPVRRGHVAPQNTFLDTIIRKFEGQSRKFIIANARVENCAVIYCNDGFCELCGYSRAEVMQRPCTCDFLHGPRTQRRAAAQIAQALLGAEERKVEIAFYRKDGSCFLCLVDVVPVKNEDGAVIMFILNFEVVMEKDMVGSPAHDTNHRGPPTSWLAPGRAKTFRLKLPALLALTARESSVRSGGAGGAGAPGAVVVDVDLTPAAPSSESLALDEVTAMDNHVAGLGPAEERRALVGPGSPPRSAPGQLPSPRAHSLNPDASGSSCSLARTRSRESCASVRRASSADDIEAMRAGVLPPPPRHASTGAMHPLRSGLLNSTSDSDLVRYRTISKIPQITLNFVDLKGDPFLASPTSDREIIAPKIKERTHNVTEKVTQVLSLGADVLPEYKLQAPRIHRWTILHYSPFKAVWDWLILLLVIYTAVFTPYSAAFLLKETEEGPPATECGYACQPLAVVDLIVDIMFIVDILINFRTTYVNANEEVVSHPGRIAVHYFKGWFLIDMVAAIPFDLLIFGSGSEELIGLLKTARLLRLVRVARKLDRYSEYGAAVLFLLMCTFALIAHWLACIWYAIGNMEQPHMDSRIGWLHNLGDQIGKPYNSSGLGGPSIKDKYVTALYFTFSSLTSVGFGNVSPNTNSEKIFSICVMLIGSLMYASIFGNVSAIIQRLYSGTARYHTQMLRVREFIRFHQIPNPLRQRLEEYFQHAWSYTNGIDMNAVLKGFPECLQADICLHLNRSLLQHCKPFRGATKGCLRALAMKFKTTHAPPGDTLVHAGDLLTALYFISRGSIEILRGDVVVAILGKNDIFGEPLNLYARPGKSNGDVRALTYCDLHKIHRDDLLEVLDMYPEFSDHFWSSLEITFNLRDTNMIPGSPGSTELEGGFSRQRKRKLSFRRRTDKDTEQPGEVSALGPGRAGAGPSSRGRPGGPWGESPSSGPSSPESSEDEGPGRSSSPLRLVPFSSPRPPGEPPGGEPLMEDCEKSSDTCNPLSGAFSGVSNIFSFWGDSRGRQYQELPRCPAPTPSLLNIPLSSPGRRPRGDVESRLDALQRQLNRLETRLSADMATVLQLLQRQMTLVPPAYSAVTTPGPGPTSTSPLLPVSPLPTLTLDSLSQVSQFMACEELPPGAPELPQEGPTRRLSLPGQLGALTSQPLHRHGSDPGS

OC[C@@H](O)[C@@H](O)[C@@H](O)CO [ribitol, (2R,3s,4S)-Pentane-1,2,3,4,5-pentol]
drug accumulation ([1]; Day 7 vs Day 1, any dose level): no apparent drug accumulation
time of maximum plasma concentrations ([1]; after the first dose, Days 1 and 7 (exception females 0.5 g/kg BID Day 1)): 6.5 h
Cmax [1, 2]: 141 µg/mL
Tmax [1, 2]: 0.5 h
AUC(0-t) [1, 2]: 298 µg·h/mL
Cmax [1, 3]: 100 µg/mL
Tmax [1, 3]: 6.5 h
AUC(0-t) [1, 3]: 218 µg·h/mL
Cmax [1, 4]: 282 µg/mL
Tmax [1, 4]: 6.5 h
AUC(0-t) [1, 4]: 427 µg·h/mL
Cmax [1, 5]: 210 µg/mL
Tmax [1, 5]: 6.5 h
AUC(0-t) [1, 5]: 319 µg·h/mL
Cmax [1, 6]: 339 µg/mL
Tmax [1, 6]: 6.5 h
AUC(0-t) [1, 6]: 504 µg·h/mL
Cmax [1, 7]: 266 µg/mL
Tmax [1, 7]: 6.5 h
AUC(0-t) [1, 7]: 602 µg·h/mL
Cmax [1, 8]: 121 µg/mL
Tmax [1, 8]: 6.5 h
AUC(0-t) [1, 8]: 246 µg·h/mL
Cmax [1, 9]: 118 µg/mL
Tmax [1, 9]: 6.5 h
AUC(0-t) [1, 9]: 170 µg·h/mL
Cmax [1, 10]: 265 µg/mL
Tmax [1, 10]: 6.5 h
AUC(0-t) [1, 10]: 414 µg·h/mL
Cmax [1, 11]: 237 µg/mL
Tmax [1, 11]: 6.5 h
AUC(0-t) [1, 11]: 345 µg·h/mL
Cmax [1, 12]: 316 µg/mL
Tmax [1, 12]: 6.5 h
AUC(0-t) [1, 12]: 595 µg·h/mL
Cmax [1, 13]: 305 µg/mL
Tmax [1, 13]: 6.5 h
AUC(0-t) [1, 13]: 562 µg·h/mL
mortality, clinical signs, body weight, food consumption, macroscopic findings (in vivo; Phase 1, up to 2.0 g/kg/dose BID (4.0 g/kg/day), 14-day observation): no treatment-related mortality
NOAEL at 7 days (in vivo; both, CD-1, mouse, in vivo, po): 3000 mg/kg/day
NOAEL (in vivo; mouse, in vivo, po): 1.5 g/kg/dose BID
subjects with increase in glycosylation of αDG (Phase 2 patient study; 6 g BID, 3 months): 3 of 4
average decrease in creatine kinase (Phase 2 patient study; 6 g BID, day 90): 77%
subjects with increase in glycosylation of αDG (Phase 2 patient study; 6 g QD, 3 months): 4 of 4
average decrease in creatine kinase (Phase 2 patient study; 6 g QD, day 90): 90%
average decrease in creatine kinase (Phase 2 patient study; 12 g BID, day 8): 33%
patients with decrease in patient-reported muscle fatigue (Phase 2 patient study; 90-day treatment period): 7 of 8
Mean 10MWT (Ambulation) (Phase 2 patient study; Baseline, Cohort 1 (6 g QD)): 2.06 m/sec
Mean NSAD (Gross Motor Function) (Phase 2 patient study; Baseline, Cohort 1 (6 g QD)): 33.8
Mean PUL2.0 (Upper Limb Function) (Phase 2 patient study; Baseline, Cohort 1 (6 g QD)): 37.3
Mean 10MWT (Ambulation) (Phase 2 patient study; Baseline, Cohort 2 (6 g BID)): 1.48 m/sec
Mean NSAD (Gross Motor Function) (Phase 2 patient study; Baseline, Cohort 2 (6 g BID)): 28.5
Mean PP Supine FVC (Respiratory Function) (Phase 2 patient study; Baseline, Cohort 2 (6 g BID)): 54.3
Mean PUL2.0 (Upper Limb Function) (Phase 2 patient study; Baseline, Cohort 2 (6 g BID)): 35.8
Mean 10MWT (Ambulation) (Phase 2 patient study; Baseline, Overall): 1.77 m/sec
Mean NSAD (Gross Motor Function) (Phase 2 patient study; Baseline, Overall): 31.1
Mean PP Supine FVC (Respiratory Function) (Phase 2 patient study; Baseline, Overall): 54.3
Mean PUL2.0 (Upper Limb Function) (Phase 2 patient study; Baseline, Overall): 36.5
Mean 10MWT (Ambulation) (Phase 2 patient study; Day 90, Cohort 1 (6 g QD)): 2.82 m/sec
Mean NSAD (Gross Motor Function) (Phase 2 patient study; Day 90, Cohort 1 (6 g QD)): 33.5
Mean PP Supine FVC (Respiratory Function) (Phase 2 patient study; Day 90, Cohort 1 (6 g QD)): 79.5
Mean PUL2.0 (Upper Limb Function) (Phase 2 patient study; Day 90, Cohort 1 (6 g QD)): 37.3
Mean 10MWT (Ambulation) (Phase 2 patient study; Day 90, Cohort 2 (6 g BID)): 1.56 m/sec
Mean NSAD (Gross Motor Function) (Phase 2 patient study; Day 90, Cohort 2 (6 g BID)): 29.0
Mean PP Supine FVC (Respiratory Function) (Phase 2 patient study; Day 90, Cohort 2 (6 g BID)): 50.0
Mean PUL2.0 (Upper Limb Function) (Phase 2 patient study; Day 90, Cohort 2 (6 g BID)): 36.3
Mean 10MWT (Ambulation) (Phase 2 patient study; Day 90, Overall): 2.10 m/sec
Mean NSAD (Gross Motor Function) (Phase 2 patient study; Day 90, Overall): 31.3
Mean PP Supine FVC (Respiratory Function) (Phase 2 patient study; Day 90, Overall): 64.8
Mean PUL2.0 (Upper Limb Function) (Phase 2 patient study; Day 90, Overall): 36.8
Mean 10MWT (Ambulation) (Phase 2 patient study; Delta, Cohort 1 (6 g QD)): 0.10 m/sec
Mean NSAD (Gross Motor Function) (Phase 2 patient study; Delta, Cohort 1 (6 g QD)): −0.3
Mean PUL2.0 (Upper Limb Function) (Phase 2 patient study; Delta, Cohort 1 (6 g QD)): 0.0
Mean 10MWT (Ambulation) (Phase 2 patient study; Delta, Cohort 2 (6 g BID)): 0.08 m/sec
Mean NSAD (Gross Motor Function) (Phase 2 patient study; Delta, Cohort 2 (6 g BID)): 0.5
Mean PP Supine FVC (Respiratory Function) (Phase 2 patient study; Delta, Cohort 2 (6 g BID)): −4.3
Mean PUL2.0 (Upper Limb Function) (Phase 2 patient study; Delta, Cohort 2 (6 g BID)): 0.5
Mean 10MWT (Ambulation) (Phase 2 patient study; Delta, Overall): 0.09 m/sec
Mean NSAD (Gross Motor Function) (Phase 2 patient study; Delta, Overall): 0.1
Mean PP Supine FVC (Respiratory Function) (Phase 2 patient study; Delta, Overall): −4.3
Mean PUL2.0 (Upper Limb Function) (Phase 2 patient study; Delta, Overall): 0.3
average increase in glycosylation of αDG (Phase 2 patient study; both cohorts (6 g QD, 6 g BID), 3 months): 13%
average drop in fatigue (scale of 1 to 10) (Phase 2 patient study; cohort 1 (6 g QD)): 1.3 points
average drop in fatigue (scale of 1 to 10) (Phase 2 patient study; cohort 2 (6 g BID)): 1.5 points
inhibition at 0.03 mM (hERG): 3.09%
inhibition at 0.3 mM (hERG): 6.43%
inhibition at 3 mM (hERG): 7.82%

— patent US20230364118A1, “RIBITOL TREATMENT” (priority 2020, published 2023)
